Source: article PMC7391767, “Molecular mechanisms underlying menthol binding and activation of TRPM8 ion channel” (Nature Communications, 2020)
Where “and” joins values, the source holds several entries; their conditions need not be identical. Equal entries are not always repeated.

Assays:
Format in all cases: cell-based
Parameters in all cases: Shifts in ANAP emission, Ave: unit: nm
ANAP-incorporated TRPM8 [1] = target: T1, ANAP-incorporated TRPM8 (Mus musculus, UniProt Q8R4D5, L943X); conditions: ANAP incorporation site L943
T1 construct: expressed in transfected cells; host or cells: HEK293 cells, co-transfected with the pANAP vector
Experimental: (§1) As fluorescence emission peak of ANAP shifts to a longer wavelength in more hydrophilic environment, we measured the shift in ANAP emission peak to report conformational changes. Fluorescence properties of ANAP may also be affected by other factors such as temperature and pH[31], so we performed our ANAP experiments always at room temperature (22 ± 1°C). To control for changes in solution pH, we added 3 mM HEPES in ANAP imaging solution to buffer the pH at 7.2. We genetically integrated ANAP into a specific site on TRPM8 with special tRNA and synthetase encoded by pANAP vector (Fig. 5d).
(§2) L-ANAP methyl ester was purchased from AsisChem. pANAP vector was purchased from Addgene. ANAP was incorporated into TRPM8 by introducing a TAG amber stop codon mutation as previously reported. Briefly, after co-transfection of both TRPM8 and pANAP vectors, ANAP was directly added to the culture medium to the final concentration of 20 µM. After 1–2 days, ANAP-containing culture medium was completely changed. Cells were further cultured in ANAP-free medium overnight before experiments.
(§3) ANAP fluorescence was excited by the Ar laser with a 375/28 excitation filter, a T400lp dichroic mirror, and a 435LP emission filter on an inverted fluorescence microscope (Nikon TE2000-U) using a ×40 oil-immersion objective (NA 1.3). Emission spectrum of ANAP was imaged with an Acton SpectraPro 2150i spectrograph in conjunction with an optiMOS CCD camera (Qimaging, USA). We determined the ANAP emission peak value by fitting the emission spectrum with a skewed Gauss distribution in Igor Pro version 6.1 (WaveMatrix), and then the difference in emission peak values measured in the absence and presence of menthol was reported as the shift of ANAP emission.

ANAP-incorporated TRPM8 [2] = target: T2, ANAP-incorporated TRPM8 (Mus musculus, UniProt Q8R4D5, P952X); conditions: ANAP incorporation site P952; average shift, menthol activated vs resting state
T2 construct: expressed in transfected cells; host or cells: HEK293 cells, co-transfected with the pANAP vector
Experimental: as §1, §2, §3

ANAP-incorporated TRPM8 [3] = target: T3, ANAP-incorporated TRPM8 (Mus musculus, UniProt Q8R4D5, W954X); conditions: ANAP incorporation site W954, menthol activated vs resting state
T3 construct: expressed in transfected cells; host or cells: HEK293 cells, co-transfected with the pANAP vector
Experimental: as §1, §2, §3

ANAP-incorporated TRPM8 [4] = target: T4, ANAP-incorporated TRPM8 (Mus musculus, UniProt Q8R4D5, L817X); conditions: ANAP incorporation site L817; average shift, menthol activated vs resting state
T4 construct: expressed in transfected cells; host or cells: HEK293 cells, co-transfected with the pANAP vector
Experimental: as §1, §2, §3

ANAP-incorporated TRPM8 [5] = target: T5, ANAP-incorporated TRPM8 (Mus musculus, UniProt Q8R4D5, P958X)
T5 construct: expressed in transfected cells; host or cells: HEK293 cells, co-transfected with the pANAP vector
Experimental: as §1, §2, §3

ANAP-incorporated TRPM8 [6] = target: T6, ANAP-incorporated TRPM8 (Mus musculus, UniProt Q8R4D5, I865X); conditions: ANAP incorporation site I865
T6 construct: expressed in transfected cells; host or cells: HEK293 cells, co-transfected with the pANAP vector
Experimental: as §1, §2, §3

ANAP-incorporated TRPM8 [7] = target: T7, ANAP-incorporated TRPM8 (Mus musculus, UniProt Q8R4D5, D920X)
T7 construct: expressed in transfected cells; host or cells: HEK293 cells, co-transfected with the pANAP vector
Experimental: as §1, §2, §3

ANAP-incorporated TRPM8 [8] = target: T8, ANAP-incorporated TRPM8 (Mus musculus, UniProt Q8R4D5, C1006X); conditions: ANAP incorporation site C1006; average shift, menthol activated vs resting state
T8 construct: expressed in transfected cells; host or cells: HEK293 cells, co-transfected with the pANAP vector
Experimental: as §1, §2, §3

ANAP-incorporated TRPM8 [9] = target: T9, ANAP-incorporated TRPM8 (Mus musculus, UniProt Q8R4D5, F847X); conditions: ANAP incorporation site F847
T9 construct: expressed in transfected cells; host or cells: HEK293 cells, co-transfected with the pANAP vector
Experimental: as §1, §2, §3

ANAP-incorporated TRPM8 [10] = target: T10, ANAP-incorporated TRPM8 (Mus musculus, UniProt Q8R4D5, T922X)
T10 construct: expressed in transfected cells; host or cells: HEK293 cells, co-transfected with the pANAP vector
Experimental: as §1, §2, §3

ANAP-incorporated TRPM8 [11] = target: T11, ANAP-incorporated TRPM8 (Mus musculus, UniProt Q8R4D5, I962X); conditions: ANAP incorporation site I962, menthol activated vs resting state
T11 construct: expressed in transfected cells; host or cells: HEK293 cells, co-transfected with the pANAP vector
Experimental: as §1, §2, §3

ANAP-incorporated TRPM8 [12] = target: T12, ANAP-incorporated TRPM8 (Mus musculus, UniProt Q8R4D5, S823X); conditions: ANAP incorporation site S823
T12 construct: expressed in transfected cells; host or cells: HEK293 cells, co-transfected with the pANAP vector
Experimental: as §1, §2, §3

ANAP-incorporated TRPM8 [13] = target: T13, ANAP-incorporated TRPM8 (Mus musculus, UniProt Q8R4D5, Q894X); conditions: ANAP incorporation site Q894
T13 construct: expressed in transfected cells; host or cells: HEK293 cells, co-transfected with the pANAP vector
Experimental: as §1, §2, §3

ANAP-incorporated TRPM8 [14] = target: T14, ANAP-incorporated TRPM8 (Mus musculus, UniProt Q8R4D5, L864X); conditions: ANAP incorporation site L864
T14 construct: expressed in transfected cells; host or cells: HEK293 cells, co-transfected with the pANAP vector
Experimental: as §1, §2, §3

ANAP-incorporated TRPM8 [15] = target: T15, ANAP-incorporated TRPM8 (Mus musculus, UniProt Q8R4D5, V791X)
T15 construct: expressed in transfected cells; host or cells: HEK293 cells, co-transfected with the pANAP vector
Experimental: as §1, §2, §3

[16] = average shift, menthol activated vs resting state

For `CC(C)[C@@H]1CC[C@@H](C)C[C@H]1O` [menthol, (−)-menthol], the Shifts_ave (ANAP-incorporated TRPM8 [1]; [16]) was -0.71 nm, the “Emission Peak at menthol activated state” value (ANAP-incorporated TRPM8 [1]; single measurement) was 476.85 nm and 475.15 nm and 483.93 nm and 482.35 nm and 475.81 nm and 479.5 nm and the Shifts_ave (ANAP-incorporated TRPM8 [2]) was 1.08 nm. For the same compound, the Shifts_ave (ANAP-incorporated TRPM8 [3]; average shift) was 1.45 nm, the Shifts in emission (ANAP-incorporated TRPM8 [3]; single measurement) was 1.59 nm and 1.14 nm and 1.76 nm and 1.68 nm and 1.08 nm and the Shifts_ave (ANAP-incorporated TRPM8 [4]) was 0.801 nm. The “Shifts in ANAP emission, Ave” value (ANAP-incorporated TRPM8 [5]; ANAP at P958) was 2.76, the Shifts_ave (ANAP-incorporated TRPM8 [5]; ANAP incorporation site P958, average shift, menthol activated vs resting state) was 2.32 nm and the Shifts in emission (ANAP-incorporated TRPM8 [5]; ANAP incorporation site P958, menthol activated vs resting state, single measurement) was 2.11 nm and 2.76 nm and 2.75 nm and 1.64 nm. For the same compound, the Shifts_ave (ANAP-incorporated TRPM8 [6]; [16]) was 0.00167 nm, the “Emission Peak at menthol activated state” value (ANAP-incorporated TRPM8 [6]; single measurement) was 471.49 nm and 482.04 nm and 478.09 nm and 488.42 nm and 478.8 nm and 481.12 nm and the “Shifts in ANAP emission, Ave” value (ANAP-incorporated TRPM8 [7]; ANAP at D920) was 3.47. For the same compound, the Shifts_ave (ANAP-incorporated TRPM8 [7]; ANAP incorporation site D920, average shift, menthol activated vs resting state) was 3.47 nm, the “Emission Peak at menthol activated state” value (ANAP-incorporated TRPM8 [7]; ANAP incorporation site D920, single measurement) was 488.12 nm and 482.56 nm and the Shifts_ave (ANAP-incorporated TRPM8 [8]) was 1.09 nm. The Shifts_ave (ANAP-incorporated TRPM8 [9]; [16]) was -1.40 nm, the “Emission Peak at menthol activated state” value (ANAP-incorporated TRPM8 [9]; single measurement) was 476.81 nm and 476.91 nm and 474.92 nm and 474.75 nm and 473.64 nm and the “Shifts in ANAP emission, Ave” value (ANAP-incorporated TRPM8 [10]; ANAP at T922) was -2.55. For the same compound, the Shifts_ave (ANAP-incorporated TRPM8 [10]; ANAP incorporation site T922, average shift, menthol activated vs resting state) was -2.55 nm, the “Emission Peak at menthol activated state” value (ANAP-incorporated TRPM8 [10]; ANAP incorporation site T922, single measurement) was 473.38 nm and 482.56 nm and 468.55 nm and 478.75 nm and 477.12 nm and the Shifts_ave (ANAP-incorporated TRPM8 [11]; average shift) was 1.07 nm. For the same compound, the Shifts in emission (ANAP-incorporated TRPM8 [11]; single measurement) was 1.34 nm and 1.4 nm and 0.73 nm and 0.79 nm, the Shifts_ave (ANAP-incorporated TRPM8 [12]; [16]) was 0.97 nm and the “Emission Peak at menthol activated state” value (ANAP-incorporated TRPM8 [12]; single measurement) was 488.83 nm and 484.77 nm and 484.58 nm and 485.28 nm. The Shifts_ave (ANAP-incorporated TRPM8 [13]; [16]) was 1.82 nm, the “Emission Peak at menthol activated state” value (ANAP-incorporated TRPM8 [13]; single measurement) was 487.18 nm and 484.04 nm and 488.11 nm and 490.92 nm and 483.4 nm and the Shifts_ave (ANAP-incorporated TRPM8 [14]; [16]) was 1.37 nm. For the same compound, the Shifts in emission (ANAP-incorporated TRPM8 [14]; menthol activated vs resting state, single measurement) was 1.34 nm and 1.42 nm and 1.82 nm and 1.04 nm and 1.21 nm, the “Emission Peak at menthol activated state” value (ANAP-incorporated TRPM8 [14]; single measurement) was 481.75 nm and 488.11 nm and 492.24 nm and 485.58 nm and 489.77 nm and the “Shifts in ANAP emission, Ave” value (ANAP-incorporated TRPM8 [15]; ANAP at V791) was 2.05. It also gave a Shifts_ave (ANAP-incorporated TRPM8 [15]; ANAP incorporation site V791, average shift, menthol activated vs resting state) of 2.05 nm.
